Source: patent US20110039763A1, “TARGETED ANTIMICROBIAL MOIETIES” (C3 JIAN, INC., priority 2009, published 2011)
“Also recorded” adds a separate entry of the source.

Tested on: microorganisms
Test: Targeting peptide binding to target microorganisms (Tables 3, 10, 12)
Settings: peptide binding in aqueous buffers that varied with peptide solubility; preferably 1x PBS
Excerpt: In certain embodiments, the targeting moiety comprises one or more targeting peptides that bind particular bacteria, fungi, and/or yeasts, and/or algae, and/or viruses and/or that bind particular groups of bacteria, and/or groups of fungi, and/or groups of yeasts, and/or groups of algae.
In certain embodiments the targeting peptides include peptides comprising or consisting of one or more of the amino acid sequences shown in Table 3 (SEQ ID NOs:13-1566). In various embodiments the peptides include peptides comprising or consisting of the retro, inverso, retro-inverso, and/or beta form of one or more of the amino acid sequences shown in Table 3. Also contemplated are circular permutations of these sequences as well as peptides comprising or consisting of the retro, inverso, retro-inverso, and/or beta form of such circular permutations.
In certain embodiments the targeting peptide can comprise one or more domains capable of binding, specifically binding, or preferentially binding to a microorganism, e.g., a target microbial organism (see, e.g., Table 3). In certain embodiment, the targeting peptide be identified via screening peptide libraries. For example, a phage display peptide library can be screened against a target microbial organism or a desired antigen or epitope thereof. Any peptide identified through such screening can be used as a targeting peptide for the target microbial organism.

Substance	Target(s) (microorganism bound by the targeting peptide)
1T-45 (WTKPSFTDLRLGFEVTLYFANR; Peptide with targeting and/or antimicrobial activity)	S. aureus; also recorded: S. epidermidis; also recorded: C. striatum; also recorded: P. aeruginosa
1T-46 (FSFKQRVMFRKEVERLR; Peptide with targeting and/or antimicrobial activity)	S. aureus; also recorded: S. epidermidis; also recorded: C. jeikeium; also recorded: C. xerosis; also recorded: C. striatum; also recorded: P. aeruginosa
1T-47 (VIKISVPGQVQMLIP; Peptide with targeting and/or antimicrobial activity)	S. mutans; also recorded: S. epidermidis; also recorded: P. aeruginosa
1T-48 (KLQVHHGRATHTLLLQPPLCAPGTIR; Peptide with targeting and/or antimicrobial activity)	S. aureus; also recorded: S. epidermidis; also recorded: C. jeikeium; also recorded: C. xerosis; also recorded: C. striatum; also recorded: P. aeruginosa
1T-49 (SLVRIHDQQPWVTRGAFIDAARTCS; Peptide with targeting and/or antimicrobial activity)	S. aureus; also recorded: S. epidermidis; also recorded: C. jeikeium; also recorded: P. aeruginosa
1T-50 (HSDEPIPNILFKSDSVH; Peptide with targeting and/or antimicrobial activity)	P. aeruginosa
1T-51 (GKPKRMPAEFIDGYGQALLAGA; Peptide with targeting and/or antimicrobial activity)	S. aureus; also recorded: P. aeruginosa
1T-52 (DEYPAKLPLSDKGATEPRRH; Peptide with targeting and/or antimicrobial activity)	S. aureus; also recorded: C. xerosis; also recorded: P. aeruginosa
1T-53 (SDILAEMFEKGELQTLVKDAAAKANA; Peptide with targeting and/or antimicrobial activity)	P. aeruginosa
1T-54 (RWVSCNPSWRIQ; Peptide with targeting and/or antimicrobial activity)	S. epidermidis; also recorded: C. xerosis; also recorded: C. striatum; also recorded: P. aeruginosa
1T-55 (NHKTLKEWKAKWGPEAVESWATLLG; Peptide with targeting and/or antimicrobial activity)	C. xerosis; also recorded: P. aeruginosa
1T-56 (LALIGAGIWMIRKG; Peptide with targeting and/or antimicrobial activity)	C. xerosis; also recorded: P. aeruginosa
1T-57 (RLEYRRLETQVEENPESGRRPMRG; Peptide with targeting and/or antimicrobial activity)	P. aeruginosa
1T-58 (CDDLHALERAGKLDALLSA; Peptide with targeting and/or antimicrobial activity)	P. aeruginosa
1T-59 (AVGNNLGKDNDSGHRGKKHRKHKHR; Peptide with targeting and/or antimicrobial activity)	S. aureus; also recorded: S. epidermidis; also recorded: P. aeruginosa
1T-60 (YLTSLGLDAAEQAQGLLTILKG; Peptide with targeting and/or antimicrobial activity)	S. aureus; also recorded: S. epidermidis; also recorded: C. jeikeium; also recorded: C. striatum; also recorded: P. aeruginosa
1T-61 (HATLLPAVREAISRQLLPALVPRG; Peptide with targeting and/or antimicrobial activity)	P. aeruginosa
1T-62 (GCKGCAQRDPCAEPEPYFRLR; Peptide with targeting and/or antimicrobial activity)	S. epidermidis; also recorded: P. aeruginosa
1T-63 (EPLILKELVRNLFLFCYARALR; Peptide with targeting and/or antimicrobial activity)	S. aureus; also recorded: S. epidermidis; also recorded: C. jeikeium; also recorded: C. xerosis; also recorded: C. striatum; also recorded: P. aeruginosa
1T-64 (QTVHHIHMHVLGQRQMHWPPG; Peptide with targeting and/or antimicrobial activity)	S. aureus; also recorded: S. epidermidis; also recorded: C. jeikeium; also recorded: C. xerosis; also recorded: C. striatum; also recorded: P. aeruginosa
1T-65 (HARAAVGVAELPRGAAVEVELIAAVRP; Peptide with targeting and/or antimicrobial activity)	S. mutans; also recorded: S. aureus; also recorded: S. epidermidis; also recorded: C. jeikeium; also recorded: C. xerosis; also recorded: C. striatum; also recorded: P. aeruginosa
1T-66 (DTDCLSRAYAQRIDELDKQYAGIDKPL; Peptide with targeting and/or antimicrobial activity)	S. mutans; also recorded: S. aureus; also recorded: S. epidermidis; also recorded: C. jeikeium; also recorded: C. xerosis; also recorded: C. striatum; also recorded: P. aeruginosa

Substance	Target(s) (microorganism bound by the targeting peptide)
1T-67 (GQRQRLTCGRVSGCSEGPSREAAR; Peptide with targeting and/or antimicrobial activity)	S. aureus; also recorded: S. epidermidis; also recorded: C. jeikeium; also recorded: C. xerosis; also recorded: C. striatum; also recorded: P. aeruginosa
1T-68 (GGTKEIVYQRG; Peptide with targeting and/or antimicrobial activity)	S. mutans; also recorded: S. aureus; also recorded: C. jeikeium; also recorded: C. xerosis; also recorded: C. striatum; also recorded: P. aeruginosa
1T-69 (ILSQEADRKKLF; Peptide with targeting and/or antimicrobial activity)	S. mutans; also recorded: P. aeruginosa
1T-70 (NRQAQGERAHGEQQG; Peptide with targeting and/or antimicrobial activity)	S. aureus; also recorded: C. jeikeium; also recorded: P. aeruginosa
1T-71 (KIDTNQWPPNKEG; Peptide with targeting and/or antimicrobial activity)	P. aeruginosa
1T-72 (EPTDGVACKER; Peptide with targeting and/or antimicrobial activity)	P. aeruginosa
1T-73 (GWWEELLHETILSKFKITKALELPIQL; Peptide with targeting and/or antimicrobial activity)	S. pneumoniae
1T-74 (DIDWGRKISCAAGVAYGAIDGCATTV; Peptide with targeting and/or antimicrobial activity)	S. pneumoniae
1T-75 (GVARGLQLGIKTRTQWGAATGAA; Peptide with targeting and/or antimicrobial activity)	S. pneumoniae
1T-76 (EMRLSKFFRDFILWRKK; Peptide with targeting and/or antimicrobial activity)	S. pneumoniae
1T-77 (EMRISRIILDFLFLRKK; Peptide with targeting and/or antimicrobial activity)	S. pneumoniae
1T-78 (FFKTIFVLILGALGVAAGLYIEKNYIDK; Peptide with targeting and/or antimicrobial activity)	S. pneumoniae
1T-79 (FGTPWSITNFWKKNFNDRPDFDSDRRRY; Peptide with targeting and/or antimicrobial activity)	S. pneumoniae
1T-80 (GGNLGPGFGVIIP; Peptide with targeting and/or antimicrobial activity)	S. pneumoniae
1T-81 (AIATGLDIVDGKFDGYLWA; Peptide with targeting and/or antimicrobial activity)	S. pneumoniae
1T-82 (FGVGVGIALFMAGYAIGKDLRKKFGKSC; Peptide with targeting and/or antimicrobial activity)	S. pneumoniae
1T-83 (QKPRKNETFIGYIQRYDIDGNGYQSLPCPQN; Peptide with targeting and/or antimicrobial activity)	S. pneumoniae
1T-84 (FRKKRYGLSILLWLNAFTNLVNSIHAFYMTLF; Peptide with targeting and/or antimicrobial activity)	S. pneumoniae
1T-86 (HRKNPVLGVGRRHRAHNVA; Peptide with targeting and/or antimicrobial activity)	S. mitis; also recorded: S. oralis; also recorded: S. salivarious
1T-87 (EAVGQDLVDAHHP; Peptide with targeting and/or antimicrobial activity)	S. mitis; also recorded: S. mutans; also recorded: S. oralis
1T-89 (HEDDKRRGMSVEVLGFEVVQHEE; Peptide with targeting and/or antimicrobial activity)	S. mitis; also recorded: S. mutans
